Data taken from patent US20020052295A1, “Diacyl derivatives of propylene diamine having herbicidal activity” (priority 1999, published 2002).

Key:
ABUTH = experiment: Pre-emergence herbicidal activity on ABUTH (velvetleaf); format: in vivo, Abutilon theophrasti; conditions: greenhouse
Summary of the method: (§1)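 Surface-applied pre-emergence treatment (compound diluted in 1:1 acetone/water) onto seeded, soil-covered pots. Greenhouse 30/21 °C. Day ~14: % inhibition vs untreated → GR80.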

SOLNI = experiment: Pre-emergence herbicidal activity on SOLNI (black nightshade); format: in vivo, Solanum nigrum; conditions: greenhouse
Summary of the method: as §1

AMARE = experiment: Pre-emergence herbicidal activity on AMARE (redroot pigweed); format: in vivo, Amaranthus retroflexus; conditions: greenhouse
Summary of the method: as §1

DATST = experiment: Pre-emergence herbicidal activity on DATST (jimsonweed); format: in vivo, Datura stramonium; conditions: greenhouse
Summary of the method: as §1

CHEAL = experiment: Pre-emergence herbicidal activity on CHEAL (common lambsquarters); format: in vivo, Chenopodium album; conditions: greenhouse
Summary of the method: as §1

CONAR = experiment: Pre-emergence herbicidal activity on CONAR (field bindweed); format: in vivo, Convolvulus arvensis; conditions: greenhouse
Summary of the method: as §1

POROL = experiment: Pre-emergence herbicidal activity on POROL (common purslane); format: in vivo, Portulaca oleracea; conditions: greenhouse
Summary of the method: as §1

CIRAR = experiment: Pre-emergence herbicidal activity on CIRAR (canada thistle, seedling); format: in vivo, Cirsium arvense; conditions: greenhouse
Summary of the method: as §1

ECHCG = experiment: Pre-emergence herbicidal activity on ECHCG (barnyardgrass); format: in vivo, Echinochloa crus-galli; conditions: lowest tested rate giving 80% or greater inhibition, approx. 14 days after planting and treating, greenhouse
Summary of the method: as §1

PANMI = experiment: Pre-emergence herbicidal activity on PANMI (wild proso millet); format: in vivo, Panicum miliaceum; conditions: greenhouse
Summary of the method: as §1

SORHA = experiment: Pre-emergence herbicidal activity on SORHA (johnsongrass, seedling); format: in vivo, Sorghum halepense; conditions: greenhouse
Summary of the method: as §1

SETFA = experiment: Pre-emergence herbicidal activity on SETFA (giant foxtail); format: in vivo, Setaria faberi; conditions: greenhouse
Summary of the method: as §1

PANDI = experiment: Pre-emergence herbicidal activity on PANDI (fall panicum); format: in vivo, Panicum dichotomiflorum; conditions: greenhouse
Summary of the method: as §1

SORVU = experiment: Pre-emergence herbicidal activity on SORVU (shattercane); format: in vivo, Sorghum vulgare; conditions: lowest tested rate giving 80% or greater inhibition, approx. 14 days after planting and treating, greenhouse
Summary of the method: as §1

BRAPP = experiment: Pre-emergence herbicidal activity on BRAPP (broadleaf signalgrass); format: in vivo, Brachiaria platyphylla; conditions: greenhouse
Summary of the method: as §1

DIGSA = experiment: Pre-emergence herbicidal activity on DIGSA (large crabgrass); format: in vivo, Digitaria sanguinalis; conditions: greenhouse
Summary of the method: as §1

[1] = test system: monocotyledonous and dicotyledonous annual plant species; experiment: Greenhouse pre-emergence test, all species of the test taken together; format: in vivo
Excerpt: All such uses, and the biological activity enabling such uses, are embraced by the term “herbicidal” herein. […] Where herbicidal activity was evident but 80% inhibition was not achieved at the highest rate tested (typically 1000 g/ha), an asterisk (*) is shown in the following tables. Herbicidal activity evident in the form of symptoms of phytotoxicity, in the absence of at least 80% inhibition at any rate, is indicated in the tables by “phyto”. A blank cell in the following tables indicates no herbicidal or phytotoxic response at any rate tested.
The pre-emergence tests were conducted by the following procedure. Topsoil was sieved to pass through a 1.27 cm screen. Fertilizer was added to the topsoil and the mixture was then sterilized by heating. The topsoil mixture was placed in a pot and compacted to a depth of 1.0 to 1.25 cm from the top of the pot. Seeds of each of several monocotyledonous and dicotyledonous annual plant species were placed on top of the soil. Additional soil was subsequently placed over the seeds to level-fill the pot. A known amount of each test compound dissolved or suspended in an appropriate organic solvent was diluted with a 50:50 mix of acetone and water and applied to the surface of the soil. After treatment the plants were placed in a greenhouse with a 30/21° C. day/night temperature regime where they received 0.64 cm of overhead irrigation. All subsequent watering consisted of a light overhead mist and/or subirrigation as needed for germination and growth.
Pre-emergence herbicidal activity of the compound of Example 5, a racemic mixture of R- and S-enantiomers of N,N′-(1,2-propanediylbis)-3-(trifluoromethyl) benzamide, was compared with that of the individual R- and S-enantiomers, the compounds of Examples 5a and 5b respectively. The procedure was exactly as described above. Rates tested were 1000, 650, 300, 200, 100, 65, 30 and 10 g/ha.
In a greenhouse pre-emergence test conducted according to the procedure described hereinabove, R—N,N′-(1,2-propanediylbis)-3-(trifluoromethyl)benzamide (the compound of Example 5a) was applied at 200 g/ha and acetochlor was applied at 100 g/ha, both individually and in combination.
In the same greenhouse pre-emergence test, R-2-fluoro-3-trifluoromethyl-N-[1-methyl-2-(3-trifluoromethyl)phenylcarbonylamino]ethylbenzamide (the compound of Example 13) was applied at 100 g/ha and acetochlor was applied at 100 g/ha, both individually and in combination.

dicotyledonous species = experiment: Greenhouse post-emergence test in combination with glyphosate, dicotyledonous species; format: in vivo
Excerpt: (§2) A pre-prepared topsoil mixture (described above) was placed in a pot and compacted to a depth of 1.0 to 1.25 cm from the top of the pot. Seeds of each of several monocotyledonous and dicotyledonous annual plant species were placed on top of the soil The seeds were covered with a mixture of 50% topsoil and 50% Rediearth™ in sufficient quantity to level-fill the pots. The pots were then placed on a greenhouse bench and subirrigated as needed until plants growing from the seeds had emerged and reached a suitable growth stage for post-emergence treatment, typically 9 to 14 days after planting.
(§3) A known amount of each test compound dissolved or suspended in an appropriate organic solvent was diluted with a 50:50 mix of acetone and water and applied to the plants by spraying with a standard spray nozzle in a spray volume of 3,100 l/ha at a spray pressure of […] (30 psig). Control plants were not sprayed.
(§4) After treatment the plants were placed in a greenhouse with a 30/21° C. day/night temperature regime and were subsequently watered as needed for growth. Approximately 14 days after treatment, the plants were observed and herbicidal efficacy recorded as percent inhibition by comparison with control plants.
(§5) In a greenhouse post-emergence test conducted according to the procedure described hereinabove, R-2-fluoro-3-trifluoromethyl-N-[1-methyl-2-(3-trifluoromethyl)phenylcarbonylamino]ethylbenzamide (the compound of Example 13) was applied at 0, 64, 125 and 250 g/ha in combination with glyphosate isopropylammonium salt at 1000 g a.e./ha. The glyphosate herbicide alone gave 72% control of dicotyledonous species and 84% control of monocotyledonous species. […] At 250 g/ha, addition of the compound of Example 13 gave 93% control of dicotyledonous species, but reduced control of monocotyledonous species to 73%.

monocotyledonous species = experiment: Greenhouse post-emergence test in combination with glyphosate, monocotyledonous species; format: in vivo
Excerpt: as §2, §3, §4, §5

[2] = lowest tested rate giving 80% or greater inhibition, approx. 14 days after planting and treating
[3] = Example 13 at 64 g/ha in combination with glyphosate isopropylammonium salt 1000 g a.e./ha
[4] = Example 13 at 125 g/ha in combination with glyphosate isopropylammonium salt 1000 g a.e./ha
[5] = Example 13 at 250 g/ha in combination with glyphosate isopropylammonium salt 1000 g a.e./ha

## C[C@H](CNC(=O)c1cccc(C(F)(F)F)c1)NC(=O)c1cccc(C(F)(F)F)c1F [Example 13, R-2-fluoro-3-trifluoromethyl-N-[1-methyl-2-(3-trifluoromethyl)phenylcarbonylamino]ethylbenzamide]
ABUTH; applied alone at 100 g/ha
  Percent control by pre-emergence application, ABUTH: 2%
ABUTH; [2]
  Pre-emergence activity (GR80) on ABUTH: 250 g/ha
SOLNI; applied alone at 100 g/ha
  Percent control by pre-emergence application, SOLNI: 45%
SOLNI; [2]
  Pre-emergence activity (GR80) on SOLNI: 125 g/ha
AMARE; applied alone at 100 g/ha
  Percent control by pre-emergence application, AMARE: 86%
AMARE; [2]
  Pre-emergence activity (GR80) on AMARE: 64 g/ha
DATST; applied alone at 100 g/ha
  Percent control by pre-emergence application, DATST: 12%
DATST; [2]
  Pre-emergence activity (GR80) on DATST: 125 g/ha
CHEAL; applied alone at 100 g/ha
  Percent control by pre-emergence application, CHEAL: 95%
CHEAL; [2]
  Pre-emergence activity (GR80) on CHEAL: 64 g/ha
CONAR; applied alone at 100 g/ha
  Percent control by pre-emergence application, CONAR: 38%
CONAR; [2]
  Pre-emergence activity (GR80) on CONAR: 750 g/ha
POROL; applied alone at 100 g/ha
  Percent control by pre-emergence application, POROL: 100%
POROL; [2]
  Pre-emergence activity (GR80) on PORAL: 64 g/ha
CIRAR; applied alone at 100 g/ha
  Percent control by pre-emergence application, CIRAR: 25%
CIRAR; [2]
  Pre-emergence activity (GR80) on CIRAR: 64 g/ha
ECHCG
  Pre-emergence activity (GR80) on ECHCG: 500 g/ha
PANMI; applied alone at 100 g/ha
  Percent control by pre-emergence application, PANMI: 5%
PANMI; [2]
  Pre-emergence activity (GR80) on PANMI: 500 g/ha
SORHA; applied alone at 100 g/ha
  Percent control by pre-emergence application, SORHA: 7%
SORHA; [2]
  Pre-emergence activity (GR80) on SORHA: 500 g/ha
SETFA; applied alone at 100 g/ha
  Percent control by pre-emergence application, SETFA: 25%
SETFA; [2]
  Pre-emergence activity (GR80) on SETFA: 125 g/ha
PANDI; applied alone at 100 g/ha
  Percent control by pre-emergence application, PANDI: 40%
PANDI; [2]
  Pre-emergence activity (GR80) on PANDI: 250 g/ha
SORVU
  Pre-emergence activity (GR80) on SORVU: 1000 g/ha
BRAPP; applied alone at 100 g/ha
  Percent control by pre-emergence application, BRAPP: 4%
BRAPP; [2]
  Pre-emergence activity (GR80) on BRAPP: 500 g/ha
DIGSA; applied alone at 100 g/ha
  Percent control by pre-emergence application, DIGSA: 43%
DIGSA; [2]
  Pre-emergence activity (GR80) on DIGSA: 125 g/ha
[1]; Example 13 100 g/ha + acetochlor 100 g/ha, at least on ABUTH, DATST, SOLNI and PANMI
  herbicidal activity of the combination compared with expectation: greater than expected herbicidal activity
[1]; Example 13 100 g/ha in combination with acetochlor 100 g/ha
  number of the 14 species showing >85% control: 10
[1]; Example 13 alone at 100 g/ha
  number of the 14 species showing >85% control: 3
Dicotyledonous species; [3]
  control of dicotyledonous species: 85%
Dicotyledonous species; [4]
  control of dicotyledonous species: 95%
Dicotyledonous species; [5]
  control of dicotyledonous species: 93%
Monocotyledonous species; [3]
  control of monocotyledonous species: 89%
Monocotyledonous species; [4]
  control of monocotyledonous species: 89%
Monocotyledonous species; [5]
  control of monocotyledonous species: 73%
